We go through 18 compounds from patent EP2958918B1, “DIHYDROPTERIDINONES II” (Boehringer Ingelheim International GmbH, priority 2013, dated 2014).

Bounds are passed on as bounds.

The first assay relates to Aβ42. As to the kind of experiment: Aβ42 cellular assay: inhibition of Aβ42 production in H4 neuroglioma cells stably expressing human APP695, electrochemiluminescence (Meso Scale Discovery) on supernatant. The assay is classed as cell-based. As to conditions: 22 hours incubation, tested range 30 µM to 0.1 nM. On the procedure: (§1) Cells were plated out to near confluency. The compounds to be tested were received as 10 mM stocks in 100% DMSO. A dilution series was initially generated in 100% DMSO and then diluted 200-fold in cell culture media such that the tested concentration range was 30 µM to 0.1 nM and the final DMSO concentration was 0.5%. The diluted compounds were incubated with the cells for 22 hours in an incubator at 37°C and 5% CO2. Aβ42 as well as Aβ total levels were then measured post-incubation from the supernatant of the cells. Aβ42 levels were determined using a specific electrochemiluminescence assay provided by Meso Scale Discovery (Catalog # L21CA-1) according to the manufacturer's protocol. Aβ total levels were likewise determined using a specific electrochemiluminescence assay provided by Meso Scale Discovery (Catalog # L21ZA-1) according to the manufacturer's protocol.
(§2) In order to absolutely define the described compounds as modulators of y-Secretase as opposed to simply inhibitors of γ-Secretase, measurements of not only Aβ42 but also Aβ total are performed.
As for `COc1cc(Nc2ncc3c(n2)N(C2CCCC2)C2(CC2)C(=O)N3C)ccc1-n1cnc(C)c1` [Example 38], the IC50 – broadly, the concentration needed to halve the response being measured – stood at 410 nM.

`COc1cc(Nc2ncc3c(n2)N(C)C2(CCCCOC2)C(=O)N3C)ccc1-n1cnc(C)c1` (stereo not drawn) [Example 39]: 78 nM corresponded to half-maximal inhibition (IC50).

With `COc1cc(Nc2nc3c(c(C(C)(C)O)n2)N(C)C(=O)C2(CCOC2)N3C)ccc1-c1cnc(C)o1` (stereo not drawn) [Example 40], the IC50 came to 485 nM. Against the preceding compound, the IC50 is about 6.2-fold higher.

The compound `COc1cc(Nc2ncc3c(n2)N(C)C2(COC2)C(=O)N3C)ccc1-n1cnc(C)c1` [Example 41] displayed an IC50 of 1220 nM.

As to `COc1cc(Nc2ncc3c(n2)N(C)C2(CCCOCC2)C(=O)N3C)ccc1-n1cnc(C)c1` (stereo not drawn) [Example 42], the IC50 came out at 206 nM.

For the compound `COc1cc(Nc2ncc3c(n2)N(C)C2(CCC2)C(=O)N3C)ccc1-n1cnc(C)c1` [Example 43], the IC50 worked out at 123 nM.

Compound `COc1cc(Nc2ncc3c(n2)N(C)C2(CC2)C(=O)N3CC(F)(F)F)ccc1-n1cnc(C)c1` [Example 44] had an IC50 of 85 nM.

Consider `COc1cc(Nc2ncc3c(n2)N(C)C2(CCC2)C(=O)N3CC(F)(F)F)ccc1-c1cnc(C)o1` [Example 45], for which inhibition was half-maximal at 58 nM (IC50).

Regarding `COc1cc(Nc2ncc3c(n2)N(C)C2(CC2)C(=O)N3c2ccc(F)cc2)ccc1-n1cnc(C)c1` [Example 46], it took 98 nM to reach half-maximal inhibition (IC50).

In the case of `COc1cc(Nc2ncc3c(n2)N(C)C2(CC2)C(=O)N3C2COC2)ccc1-n1cnc(C)c1` [Example 47], the IC50 stood at 191 nM. Against the preceding compound, the IC50 is about 1.9-fold higher.

In turn, `COc1cc(Nc2ncc3c(n2)N(C)C2(CCOC2)C(=O)N3c2ccc(C(F)(F)F)cn2)ccc1-n1cnc(C)c1` (stereo not drawn) [Example 48] displayed an IC50 of 389 nM.

For the compound `COc1cc(Nc2ncc3c(n2)N(C)C2(CC4CCC2C4)C(=O)N3C)cnc1-n1cnc(C)c1` (stereo not drawn) [Example 49], the IC50 stood at 95 nM.

`COc1cc(Nc2ncc3c(n2)N(C)C2(CC2)C(=O)N3CC(F)(F)F)cnc1-n1cnc(C)c1` [Example 50] yielded an IC50 of 204 nM.

As to `COc1cc(Nc2ncc3c(n2)N(C)C2(CC2)C(=O)N3CC(F)(F)F)ccc1-n1ccnc1C` [Example 51], the concentration for half-maximal inhibition (IC50) turned out to be 59 nM.

Compound `COc1cc(Nc2ncc3c(n2)N(C)C2(CC2)C(=O)N3CC(F)F)ccc1-n1cnc(C)c1` [Example 52] yielded an IC50 of 110 nM.

`COc1cc(Nc2ncc3c(n2)N(C)C2(CCCC2)C(=O)N3C)ccc1-n1cnc(C)c1` [Example 53]: the IC50 is 40 nM. This IC50 is about 2.8-fold lower than that of the compound before.

Take `COc1cc(Nc2ncc3c(n2)N(C)C2(CCCC2)C(=O)N3CC(F)(F)F)ccc1-n1cnc(C)c1` [Example 54]: the IC50 amounted to 22 nM.

In the case of `COc1cc(Nc2nc(CC(F)(F)F)c3c(n2)N(C)C2(CC2)C(=O)N3C)ccc1-n1cnc(C)c1` [Example 55], the IC50 turned out to be 76 nM. This IC50 lies about 3.5-fold higher than the previous one.

The next assay relates to Aβ total. Description: Aβ total cellular assay: inhibition of Aβ total production in H4 neuroglioma cells stably expressing human APP695, electrochemiluminescence (Meso Scale Discovery) on supernatant; used for the ratio Aβ total IC50 / Aβ42 IC50. The following applies: higher ratio = more specific inhibition of Aβ42. The assay is classed as cell-based. The protocol:
as §1, §2
Turning to `COc1cc(Nc2ncc3c(n2)N(C2CCCC2)C2(CC2)C(=O)N3C)ccc1-n1cnc(C)c1` [Example 38], the “Ratio Aß(total)/Aß42” value is over 15.

In the case of `COc1cc(Nc2ncc3c(n2)N(C)C2(CCCCOC2)C(=O)N3C)ccc1-n1cnc(C)c1` (stereo not drawn) [Example 39], the “Ratio Aß(total)/Aß42” value was found to be 91.

For the compound `COc1cc(Nc2nc3c(c(C(C)(C)O)n2)N(C)C(=O)C2(CCOC2)N3C)ccc1-c1cnc(C)o1` (stereo not drawn) [Example 40], the “Ratio Aß(total)/Aß42” value is over 62.

As to `COc1cc(Nc2ncc3c(n2)N(C)C2(COC2)C(=O)N3C)ccc1-n1cnc(C)c1` [Example 41], the “Ratio Aß(total)/Aß42” value was over 25.

Turning to `COc1cc(Nc2ncc3c(n2)N(C)C2(CCCOCC2)C(=O)N3C)ccc1-n1cnc(C)c1` (stereo not drawn) [Example 42], the “Ratio Aß(total)/Aß42” value is 51.

Take `COc1cc(Nc2ncc3c(n2)N(C)C2(CCC2)C(=O)N3C)ccc1-n1cnc(C)c1` [Example 43]: the “Ratio Aß(total)/Aß42” value stood at 237.

Take `COc1cc(Nc2ncc3c(n2)N(C)C2(CC2)C(=O)N3CC(F)(F)F)ccc1-n1cnc(C)c1` [Example 44]: the “Ratio Aß(total)/Aß42” value is 50.

Regarding `COc1cc(Nc2ncc3c(n2)N(C)C2(CCC2)C(=O)N3CC(F)(F)F)ccc1-c1cnc(C)o1` [Example 45], the “Ratio Aß(total)/Aß42” value is over 517.

As to `COc1cc(Nc2ncc3c(n2)N(C)C2(CC2)C(=O)N3c2ccc(F)cc2)ccc1-n1cnc(C)c1` [Example 46], the “Ratio Aß(total)/Aß42” value was over 306.

As to `COc1cc(Nc2ncc3c(n2)N(C)C2(CC2)C(=O)N3C2COC2)ccc1-n1cnc(C)c1` [Example 47], the “Ratio Aß(total)/Aß42” value worked out at 98.

On to `COc1cc(Nc2ncc3c(n2)N(C)C2(CCOC2)C(=O)N3c2ccc(C(F)(F)F)cn2)ccc1-n1cnc(C)c1` (stereo not drawn) [Example 48], for which the “Ratio Aß(total)/Aß42” value turned out to be 22.

As to `COc1cc(Nc2ncc3c(n2)N(C)C2(CC4CCC2C4)C(=O)N3C)cnc1-n1cnc(C)c1` (stereo not drawn) [Example 49], the “Ratio Aß(total)/Aß42” value was 69.

For `COc1cc(Nc2ncc3c(n2)N(C)C2(CC2)C(=O)N3CC(F)(F)F)cnc1-n1cnc(C)c1` [Example 50], the “Ratio Aß(total)/Aß42” value was over 147.

On to `COc1cc(Nc2ncc3c(n2)N(C)C2(CC2)C(=O)N3CC(F)(F)F)ccc1-n1ccnc1C` [Example 51], for which the “Ratio Aß(total)/Aß42” value is given as 126.

Consider `COc1cc(Nc2ncc3c(n2)N(C)C2(CC2)C(=O)N3CC(F)F)ccc1-n1cnc(C)c1` [Example 52], for which the “Ratio Aß(total)/Aß42” value was 61.

Take `COc1cc(Nc2ncc3c(n2)N(C)C2(CCCC2)C(=O)N3C)ccc1-n1cnc(C)c1` [Example 53]: the “Ratio Aß(total)/Aß42” value is listed as 132.

On to `COc1cc(Nc2ncc3c(n2)N(C)C2(CCCC2)C(=O)N3CC(F)(F)F)ccc1-n1cnc(C)c1` [Example 54], for which the “Ratio Aß(total)/Aß42” value amounted to 116.

For the compound `COc1cc(Nc2nc(CC(F)(F)F)c3c(n2)N(C)C2(CC2)C(=O)N3C)ccc1-n1cnc(C)c1` [Example 55], the “Ratio Aß(total)/Aß42” value was found to be 103.
